In this test the test system is A2780cis cells. Description: Photo- and cytotoxic activity determination (MTT), A2780cis cells, normoxia or hypoxia. The format is cell-based. Conditions: A2780cis; for inhibition at 250 µM: 2 h incubation in the dark, 48 h drug-free recovery. The source says: Having shown that the Ir(III)-COUPY conjugates can sensitize both type I and II ROS through spectroscopic techniques and readily internalize into living cells, their photocytotoxicity was screened in various cancer cell lines. This screening included two representative melanoma cell lines (human A375 and […] human SK-MEL-28) and cancer cells with resistance to the clinical drug cisplatin. For the latter, both sensitive and cisplatin-resistant ovarian cancer cells (A2780 and A2780cis) as well as HeLa cells, which also show a degree of chemoresistance to the platinum anticancer drug in vitro,[54] were used. For the determination of dark and light cytotoxicity, dose–response curves were assayed from both conditions to provide the correspondent IC50 values, which correspond to the concentration needed for inhibition of cell growth by 50%. Phototherapeutic index (PI) was calculated as the ratio of dark to light IC50 value for each compound.
A375, HeLa, and SK-MEL-28 cells were cultured in Dulbecco’s modified Eagle medium (DMEM) supplemented with 10% FBS, L-glutamine, and 1% penicillin–streptomycin. A2780 and A2780cis cells were grown in RPMI-1640 cell medium supplemented with 10% fetal bovine serum (FBS) and 2 mM L-glutamine. Acquired resistance to cisplatin in the A2780cis cell line was maintained by adding cisplatin 1 μM to culture medium every second passage. Cells were cultured in a humidified incubator at 310 K with 5% CO2 atmosphere and subcultured two or three times a week with appropriate densities and were confirmed to be mycoplasma-free using a standard Hoechst DNA staining method.
A2780, A2780cis, HeLa, A375, and SK-MEL-28 cells were maintained at logarithmic growth-phase and cultured in 96-well plates at a density of 5000 cells/well in complete medium for 24 h at 310 K, 5% CO2 in a humidified incubator. For hypoxia experiments, a hypoxia condition was set up by Tissue Culture Service at University of Murcia using nitrogen (N2) to displace O2 down to a minimum of 2% in a Forma Steri-Cycle i160 incubator (Thermo Fisher Scientific). […] A light-based treatment schedule was performed as follows: 1 h incubation with the compounds in the dark, followed by 1 h incubation under irradiation conditions by placing the Photoreactor EXPO-LED from Luzchem (Canada) fitted with green lamps (final light intensity applied of 1.5 mW/cm^2 at λmax = 520 nm) inside the CO2 incubator. All the cell culture plates subjected to light irradiation included untreated controls to verify that cell viability was not affected by light. Then, treatment-containing media was removed, and fresh media was added for a 48 h cell recovery period; the temperature throughout the experiment remained at 310 K. Dark control samples were placed in the same dark conditions and then kept incubated for 1 h in the dark in the humidified CO2 incubator. Medium was then aspirated by suction, cells were loaded with 50 μL of MTT solution (1 mg/mL) for additional 4 h and then removed, and 50 μL of DMSO was added to solubilize the purple formazan crystals formed in active cells. The absorbance was measured at 570 nm using a microplate reader (FLUOstar Omega), and the IC50 values were calculated based on the inhibitory rate curves using the following equation [drawing 4] 4 where I represents the percentage inhibition of viability observed, Imax is the maximal inhibitory effect, IC50 is the concentration that inhibits 50% of maximal growth, C is the concentration of the treatment, and n is the slope of the semi-logarithmic dose–response sigmoidal curves. The non-linear fitting was performed using SigmaPlot 14.0 software. All experiments were performed in three independent studies with n = 3 replicates per concentration level. For a detailed phototoxicity procedure, ref ([43]) includes technical explanations.

One compound from publication PMC10291553, “Exploring Structure–Activity Relationships in Photodynamic Therapy Anticancer Agents Based on Ir(III)-COUPY Conjugates” (Journal of Medicinal Chemistry, 2023) can be followed below.

Read-outs that look alike come from different tables or passages of the source. Where only a bound is given, the exact number is not on record here.

For `NCC(=O)CCC(=O)O` [5-ALA, 5-aminolevulinic acid, reference compound], the inhibition at 250 µM (hypoxia, read-out: Partial inhibition (% of cell growth inhibition with respect to untreated controls), Hypoxia) came to 1 ± 0.2% and the inhibition at 250 µM (normoxia, read-out: Partial inhibition (% of cell growth inhibition with respect to untreated controls), Normoxia) was 3.5 ± 0.4%. The IC50 was above 250 µM (hypoxia 2% O2, 1 h incubation + 1 h green light 520 nm, 48 h drug-free, read-out: Hypoxia 520 nm IC50); above 250 µM (hypoxia 2% O2, dark, tested up to 250 μM, read-out: Hypoxia Dark IC50); above 250 µM (hypoxia, 520 nm, read-out: A2780cis Light 520 nm IC50 (microM) Hypoxia); above 250 µM (hypoxia, dark, read-out: A2780cis Dark IC50 (microM) Hypoxia); above 250 µM (normoxia 21% O2, dark, tested up to 250 μM, read-out: Normoxia Dark IC50); 62 ± 12 µM (normoxia, 520 nm, read-out: A2780cis Light 520 nm IC50 (microM) Normoxia). For the same compound, the IC50 (normoxia, dark, up to 250 microM, read-out: A2780cis Dark IC50 (microM) Normoxia) is above 250 µM. Besides, for the setting “normoxia 21% O2, 520 nm, dark tested up to 250 μM”, the “Normoxia PI (phototherapeutic index)” value is listed as above 4.0.

As a reminder, the inhibition is the percentage by which the read-out fell short of the control. As a reminder, the IC50 is the point on the concentration scale where inhibition reaches its midpoint.
